Assays:
[1] = test system: C2C12 muscle cells; assay: Analysis of glucose absorption (2-deoxyglucose) in differentiated C2C12 muscle cells; format: cell-based; details: test materials 10 μM, times relative to control group
Outline: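 Differentiated C2C12 myotubes (6 days in 1% serum) held 3 h in KRB with 5 mM glucose, then given test material at 10 μM. After 30 min, 0.2 μCi 2-deoxyglucose added for 20 min; uptake measured by radioactive counting of NaOH lysates.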

[2] = test system: AMPK; assay: Measurement of AMPK activity by Western blot in C2C12 cells; format: cell-based; design: key to AMPK activity (degree of phosphorylation of serine-79 and threonine-172): fold increase in threonine-172 phosphorylation; AMPK activity (degree of phosphorylation of serine-79): unit not given here; details: 10 μM for 50 minutes; for AMPK activity (degree of phosphorylation of serine-79 and threonine-172): no superscript: Western blot of serine-79 and threonine-172 phosphorylation; for AMPK activity (class: degree of phosphorylation of threonine-172): strong/mild/weak
Outline: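 Differentiated C2C12 cells were exposed to test material at 10 μM for 50 minutes, then lysed. AMPK activity was taken from Western blots of Thr-172 phosphorylation and acetyl CoA carboxylase Ser-79 phosphorylation, with ERK as loading reference. Thr-172 rise was graded strong (≥3-fold), mild (1-3-fold) or weak (<1-fold).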

Structure (SMILES)	Glucose absorption [1]	AMPK activity (degree of phosphorylation of serine-79 and threonine-172) [2]	AMPK activity (class: degree of phosphorylation of threonine-172) [2]	AMPK activity (degree of phosphorylation of serine-79) ([2]; footnote a: Western blot of serine-79 phosphorylation)
CC(C)(C)c1nc(NCCc2cccc(F)c2)c2ccccc2n1 [Compound 196, (2-tert-Butylquinazolino-4-yl)-[2-(3-fluorophenyl)-ethyl]-amine]	2.1	4.8	strong (“strong” means that the degree of phosphorylation of threonine-172 increased by 3 times or more)	–
COc1ccc(CNc2nc(N3CCN(C)CC3)nc3ccccc23)cc1OC [Compound 302, (3,4-Dimethoxybenzyl)-[2-(4-methylpiperazino-1-yl)-quinazolino-4-yl]-amine]	0.7	1.2	–	–
COc1cccc(CNc2nc(C(C)c3ccccc3)nc3ccccc23)c1OC (centres unmarked) [Compound 375, (2,3-Dimethoxybenzyl)-[2-(1-phenylethyl)-quinazolino-4-yl]-amine]	1.1	5.2	–	–
CC(C)c1nc(NCc2ccccc2)c2ccccc2n1 [Compound 175, Benzyl-(2-isopropylquinazolino-4-yl)-amine]	2.7	4.8	strong (“strong” means that the degree of phosphorylation of threonine-172 increased by 3 times or more)	–
CCSc1nc(NCc2cccc3ccccc23)c2ccccc2n1 [Compound 35, (2-Ethylsulfanylquinazolino-4-yl)-naphthaleno-1-ylmethyl amine]	1.9	–	strong (“strong” means that the degree of phosphorylation of threonine-172 increased by 3 times or more)	–
CCC(CC)Nc1nc(-c2ccccc2)nc2ccccc12 [Compound 121, (1-Ethylpropyl)-(2-phenylquinazolino-4-yl)-amine]	2.4	2.2	strong (“strong” means that the degree of phosphorylation of threonine-172 increased by 3 times or more)	–
CCCc1nc(NCc2ccc(OC)c(OC)c2)c2ccccc2n1 [Compound 399, (3,4-Dimethoxybenzyl)-(2-propylquinazolino-4-yl)-amine]	1.2	4.9	–	–
COc1ccc(CNc2nc(C(C)c3ccccc3)nc3ccccc23)cc1 (centres unmarked) [Compound 373, (4-Methoxybenzyl)-[2-(1-phenylethyl)-quinazolino-4-yl]-amine]	1.1	2.1	–	–
CCCNc1nc(C(Cl)(Cl)Cl)nc2ccccc12 [Compound 7, Propyl-(2-trichloromethylquinazolino-4-yl)-amine]	1.5	–	–	4.4^a
COc1cc(OC)c(CNc2nc(C3CC3)nc3ccccc23)c(OC)c1 [Compound 392, (2-Cyclopropylquinazolino-4-yl)-(2,4,6-trimethoxybenzyl)-amine]	1.1	2.7	–	–
COc1ccc(CNc2nc(C(OC)c3ccccc3)nc3ccccc23)c(OC)c1 (centres unmarked) [Compound 368, (2,4-Dimethoxybenzyl)-[2-(methoxyphenylmethyl)-quinazolino-4-yl]-amine]	1.1	5.9	–	–
COc1cc(CNc2nc(C(C)c3ccccc3)nc3ccccc23)cc(OC)c1 (centres unmarked) [Compound 376, (3,5-Dimethoxybenzyl)-[2-(1-phenylethyl)-quinazolino-4-yl]-amine]	1.1	1.1	–	–
CCSc1nc(NCCc2ccccc2)c2ccccc2n1 [Compound 29, (2-Ethylsulfanylquinazolino-4-yl)-phenethylamine]	1.6	–	mild (“mild” means that the degree of phosphorylation of threonine-172 increased by 1 to 3 times)	–

From patent publication US20080207614A1, “QUINAZOLINE DERIVATIVES FOR THE TREATMENT AND PREVENTION OF DIABETES AND OBESITY” (SK CHEMICALS CO., LTD., priority 2004, published 2008)
